Laboratory results reported in patent US7129215B2, “Tripeptide and tetrapeptide thioethers” (Telik, Inc., priority 2005, dated 2006).
Where two headings read alike, the source gives them in different places. *1 amine or outer side, *2 acyl side, *3 side chain or, on linkers, in order; H or OH if unused. Where a SMILES comes first, the peptide text is derived from it. [ ]: non-standard residue; d: D form. The star is where a group is joined. γGlu = O=C(O)[C@H](CCC(=O)[*:2])N[*:1]; dPhg = N[C@@H](C(=O)O)c1ccccc1; Bn = c1ccc(C*)cc1

What was measured:
[1] = molecular target: T1, Recombinant human GST A1-1 (Homo sapiens, UniProt P08263); assay: Inhibition of glutathione S-transferase isoenzyme GST A1-1; type: biochemical
T1 construct: purchased EMD Biosciences, Inc., San Diego, Calif., U.S.A
T1 sequence (P08263 1-222): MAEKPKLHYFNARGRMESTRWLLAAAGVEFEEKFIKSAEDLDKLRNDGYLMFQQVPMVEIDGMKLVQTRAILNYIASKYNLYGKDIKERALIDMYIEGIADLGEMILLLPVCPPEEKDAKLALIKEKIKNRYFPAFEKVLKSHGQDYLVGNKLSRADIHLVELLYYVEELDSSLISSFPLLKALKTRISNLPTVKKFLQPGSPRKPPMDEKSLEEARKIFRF
Protocol: (§1) Inhibition of glutathione S-transferase isoenzymes.
(§2) For each assay, the test compound and GSH were added to the isoenzyme. Immediately after the addition of CDNB solution to the isoenzyme/compound/GSH solution, the absorbance at 340 nm was recorded continuously for 5 min on a SpectraMax plate reader (Molecular Devices, Inc., Sunnyvale, Calif., U.S.A.). The GST inhibitory activity of each compound was calculated from the slopes of the absorbance/time curves at the various concentrations of test compound. All assays were conducted in duplicate wells, with DMSO control, with the final DMSO concentration maintained at 2%.

[2] = system: HL-60 human leukemia cell line; assay: Cytotoxicity in HL-60 cells (CellTiter-Glo); details: read-out: HL-60 CC50 (concentration that causes 50% growth inhibition); diethyl ester compounds (1B to 12B, TLK199); 72 hours
Protocol: Cytotoxicity in HL-60 cells.
The cells were then incubated for 72 hours (approximately three doubling times). The cells were then harvested by centrifugation (1200 rpm for 5 min at 20° C.), and 100 μL of the culture supernatant was removed and replaced by the same volume of the CellTiter-Glo reagent. After incubation for 10 minutes at room temperature with constant mixing, the plate was read with a luminometer, with the number of live cells being proportional to the observed luminescence. All assays were conducted in triplicate wells, with DMSO solvent control.

[3] = molecular target: T2, Recombinant human GST P1-1 (Homo sapiens, UniProt P09211); assay: Inhibition of glutathione S-transferase isoenzyme GST P1-1; type: biochemical
T2 construct: purchased EMD Biosciences, Inc., San Diego, Calif., U.S.A
Protocol: as §1, §2

[4] = molecular target: T3, Recombinant human GST M1-1 (Homo sapiens, UniProt P09488); assay: Inhibition of glutathione S-transferase isoenzyme GST M1-1; type: biochemical
T3 construct: purchased EMD Biosciences, Inc., San Diego, Calif., U.S.A
T3 sequence (P09488 2-218 limits assumed): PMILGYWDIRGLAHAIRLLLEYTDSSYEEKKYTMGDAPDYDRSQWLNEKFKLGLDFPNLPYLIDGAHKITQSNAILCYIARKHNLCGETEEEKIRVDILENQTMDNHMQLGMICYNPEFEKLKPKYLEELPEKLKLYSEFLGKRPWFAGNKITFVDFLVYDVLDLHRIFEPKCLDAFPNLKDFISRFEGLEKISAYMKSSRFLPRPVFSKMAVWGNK
Protocol: as §1, §2

[5] = Phase II, MDS, interim results; cited from earlier work
[6] = both in vitro and in vivo; cited from earlier work
HL-60 cells [7] = assay: Enhancement of differentiation of HL-60 cells (CD11b expression, flow cytometry); type: cell-based, human; details: diethyl ester compounds; 24 hours; CD11b expression vs DMSO control
Protocol: Some of the diethyl ester compounds of this invention were also tested for their ability to enhance the differentiation of HL-60 cells. This illustrates the beneficial effect of the compounds of this invention in stimulating differentiation of the HL-60 human leukemia cell line in vitro. […] The cells were harvested by centrifugation (1250 rpm for 5 min at 20° C.) and washed with 2 mL ice-cold phosphate-buffered saline (PBS) containing 2% FBS, then stained with 10 μL phycoerythrin-conjugated anti-CD11b antibody or 10 μL phycoerythrin-conjugated isotype control antibody. After standing for 30 min on ice, the cells were re-suspended in 2 mL ice-cold PBS containing 2% FBS. The cells were harvested by centrifugation (1250 rpm for 5 min at 20° C.) and resuspended in 0.4 mL PBS containing 2% FBS. The specific cell surface expression of CD11b, a marker for granulocytes and monocytes, was detected by flow cytometry using a FACSCalibur analyzer (BD Biosciences). All assays were conducted in triplicate, with DMSO control. The extent of differentiation was expressed as a multiple of the signal from the DMSO control.

HL-60 cells [8] = details: background statement; cited from earlier work
[9] = normal animals and animals depleted by cisplatin or fluorouracil; cited from earlier work
[10] = system: hematopoietic progenitor cells; details: normal human peripheral blood; cited from earlier work
GSTπ = molecular target: T4, GSTπ (Homo sapiens, UniProt P09211); assay: GSTπ immunoprecipitation assay in HL60 cells; type: cell-based; details: HL-60, read-out: GSTπ inhibition, %
T4 construct: endogenous in cells; host or cells: HL-60 (human promyeloid myelocytic leukemia)
Protocol: In vitro example 3. GSTπ immunoprecipitation assay. This example illustrates the beneficial effects of compounds of this invention in causing GSTπ immunoprecipitation. […] HL60 cells were seeded at 6×10^5 cells/mL in 20 mL RPMI-1640 medium supplemented with 10% fetal bovine serum, 1 mM glutamine and 20 μM gentamycin in a T75 flask and cultured overnight in 5% CO2 atmosphere at 37° C. […] Following the treatment, the cells were collected by centrifugation and washed twice with phosphate-buffered saline. The cell pellets were resuspended in 1 mL lysis buffer (50 mM Tris, pH 8.0, 120 mM NaCl, 0.5% NP-40 surfactant, 100 mM NaF; to which protease and phosphatase inhibitors (Roche Diagnostics, Indianapolis, Ind., U.S.A.) had been added before use) and incubated with gentle agitation for 30 minutes at 4° C. The cell lysates were cleared by centrifugation at 13,000 rpm for 10 minutes to remove cell debris. […] Following overnight incubation at 4° C., 30 μL of Protein A/G agarose beads (Pierce, Rockford, Ill.) were added to the mixture and incubated for 1 hour at 4° C. […] GSTπ protein bands were visualized and band intensity quantified on Odyssey infrared scanner (Li-Cor, Lincoln, Nebr., U.S.A.). The band intensity from a compound treatment was compared to its corresponding DMSO control and expressed as percent inhibition.

[11] = molecular target: T2, Recombinant human GST P1-1; details: background statement; read-out: GST P1-1 IC50 (related art statement); cited from earlier work

T2 sequence (P09211 2-210 limits assumed): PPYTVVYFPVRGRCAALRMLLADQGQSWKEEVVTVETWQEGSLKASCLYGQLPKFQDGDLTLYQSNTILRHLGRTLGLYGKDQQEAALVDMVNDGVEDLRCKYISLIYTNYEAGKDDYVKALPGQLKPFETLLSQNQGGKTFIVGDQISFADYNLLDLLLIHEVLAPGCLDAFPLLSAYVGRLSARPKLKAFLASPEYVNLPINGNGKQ
T4 sequence (P09211 2-210 limits assumed): as above

N[C@@H](CCC(=O)N[C@@H](CSCc1ccc(Cl)cc1)C(=O)N[C@@H](C(=O)O)c1ccccc1)C(=O)O [TLK137]
IC50 ([1]; diacid compounds, GSH and CDNB at 2×Km, pH 6.5, read-out: GST A1-1 IC50): 10 µM
CC50 [2]: 10 µM
IC50 ([3]; diacid compounds (1A to 12A, TLK117, TLK137), GSH and CDNB at 2×Km, pH 6.5): 0.052 µM
IC50 ([4]; diacid compounds, GSH and CDNB at 2×Km, pH 6.5, read-out: GST M1-1 IC50): 6.5 µM

CCOC(=O)[C@@H](N)CCC(=O)N[C@@H](CSCc1ccccc1)C(=O)N[C@@H](C(=O)OCC)c1ccccc1 [TLK199]
Hematologic improvement [5]: multilineage hematologic improvement
Tolerability [5]: well tolerated
Potentiation of the activity of cytotoxic agents [6]: potentiate the activity of cytotoxic agents
Enhancement of differentiation of HL-60 cells (HL-60 cells [7]): enhances differentiation
Differentiation of HL-60 promyelocytic leukemia cells in vitro (HL-60 cells [8]): induce the differentiation
White blood cell production [9]: increase white blood cell production
Colony formation of hematopoietic progenitor cells [10]: stimulate colony formation of all three lineages

N[C@@H](CCC(=O)N[C@@H](CSCc1ccccc1)C(=O)N[C@@H](C(=O)O)c1ccccc1)C(=O)O [TLK117, L-γ-glutamyl-S-(phenylmethyl)-L-cysteinyl-D-phenylglycine] (γGlu-Cys(Bn)-[dPhg]-OH)
IC50 [1]: 17 µM
inhibition at 20 µM (GSTπ): 90%
IC50 [3]: 0.409 µM
IC50 [11]: ~0.4 µM
IC50 [4]: 70 µM
